{
  "source": "patent US6358885B1",
  "about": "“Substituted phenylheterocyclic herbicides” (Mississippi State University, priority 1992, dated 2002)",
  "key": {"barnyardgrass": {"tested_on": "barnyardgrass", "assay": "Test B preemergence/postemergence greenhouse plant response rating 0 to 10", "assay_type": "in vivo, Echinochloa crus-galli", "conditions": "0 to 10 scale", "in_short": "(§1)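 Test chemicals, dissolved in a non-phytotoxic solvent, were applied to soil at planting and, at the same time, over foliage of seedlings at the one to four leaf stage.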"}, "cotton": {"tested_on": "cotton", "assay": "Test B preemergence/postemergence greenhouse plant response rating 0 to 10", "assay_type": "in vivo, Gossypium hirsutum", "conditions": "0 to 10 scale", "in_short": "as §1"}, "morningglory": {"tested_on": "morningglory", "assay": "Test B preemergence/postemergence greenhouse plant response rating 0 to 10", "assay_type": "in vivo, Ipomoea hederacea", "conditions": "0 to 10 scale", "in_short": "as §1"}, "velvetleaf": {"tested_on": "velvetleaf", "assay": "Test B preemergence/postemergence greenhouse plant response rating 0 to 10", "assay_type": "in vivo, Abutilon theophrasti", "conditions": "0 to 10 scale", "in_short": "as §1"}, "wheat [1]": {"tested_on": "wheat", "assay": "Test B preemergence/postemergence greenhouse plant response rating 0 to 10", "assay_type": "in vivo, Triticum aestivum", "conditions": "0 to 10 scale", "in_short": "as §1"}, "bedstraw": {"tested_on": "bedstraw", "assay": "Test C preemergence/postemergence greenhouse plant response rating 0 to 100", "assay_type": "in vivo, Galium aparine", "conditions": "POSTEMERGENCE; for Plant response rating, Bedstraw: 0 to 100 scale", "in_short": "(§2)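 Compounds in non-phytotoxic solvent applied preemergence to sandy loam one day after planting, postemergence at the 1–4 leaf stage, or to ~2.5 cm floodwater over silt loam.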"}, "blackgrass": {"tested_on": "blackgrass", "assay": "Test C preemergence/postemergence greenhouse plant response rating 0 to 100", "assay_type": "in vivo, Alopecurus myosuroides", "conditions": "POSTEMERGENCE; for Plant response rating, Blackgrass: 0 to 100 scale", "in_short": "as §2"}, "crabgrass": {"tested_on": "crabgrass", "assay": "Test C preemergence/postemergence greenhouse plant response rating 0 to 100", "assay_type": "in vivo, Digitaria sanguinalis", "conditions": "POSTEMERGENCE; for Plant response rating, Crabgrass: 0 to 100 scale", "in_short": "as §2"}, "giant foxtail": {"tested_on": "giant foxtail", "assay": "Test C preemergence/postemergence greenhouse plant response rating 0 to 100", "assay_type": "in vivo, Setaria faberii", "conditions": "POSTEMERGENCE; for Plant response rating, Giant foxtail: 0 to 100 scale", "in_short": "as §2"}, "rape": {"tested_on": "rape", "assay": "Test C preemergence/postemergence greenhouse plant response rating 0 to 100", "assay_type": "in vivo, Brassica napus", "conditions": "POSTEMERGENCE; for Plant response rating, Rape: 0 to 100 scale", "in_short": "as §2"}, "wheat [2]": {"tested_on": "wheat", "assay": "Test C preemergence/postemergence greenhouse plant response rating 0 to 100", "assay_type": "in vivo, Triticum aestivum", "conditions": "POSTEMERGENCE; for Plant response rating, Wheat: 0 to 100 scale", "in_short": "as §2"}, "wild oat": {"tested_on": "wild oat", "assay": "Test C preemergence/postemergence greenhouse plant response rating 0 to 100", "assay_type": "in vivo, Avena fatua", "conditions": "POSTEMERGENCE; for Plant response rating, Wild oat: 0 to 100 scale", "in_short": "as §2"}},
  "data": [
    {"smiles": "CCC(C)Oc1cc(-c2nn3c(c2Cl)CCCC3)c(F)cc1Cl", "note": "(stereo not drawn) [Compound 48]", "values": [
      {"measurement": "Plant response rating, Barnyardgrass", "setting": "barnyardgrass; POSTEMERGENCE, Rate 50 g/ha", "result": 4},
      {"measurement": "Plant response rating, Barnyardgrass", "setting": "barnyardgrass; POSTEMERGENCE, Rate 200 g/ha", "result": 8},
      {"measurement": "Plant response rating, Barnyardgrass", "setting": "barnyardgrass; PREEMERGENCE, Rate 50 g/ha", "result": 2},
      {"measurement": "Plant response rating, Barnyardgrass", "setting": "barnyardgrass; Rate 200 g/ha, PREEMERGENCE", "result": 3},
      {"measurement": "Plant response rating, Cotton", "setting": "cotton; POSTEMERGENCE, Rate 50 g/ha", "result": 10},
      {"measurement": "Plant response rating, Cotton", "setting": "cotton; POSTEMERGENCE, Rate 200 g/ha", "result": 10},
      {"measurement": "Plant response rating, Cotton", "setting": "cotton; PREEMERGENCE, Rate 50 g/ha", "result": 0},
      {"measurement": "Plant response rating, Cotton", "setting": "cotton; Rate 200 g/ha, PREEMERGENCE", "result": 9},
      {"measurement": "Plant response rating, Morningglory", "setting": "morningglory; POSTEMERGENCE, Rate 50 g/ha", "result": 10},
      {"measurement": "Plant response rating, Morningglory", "setting": "morningglory; PREEMERGENCE, Rate 50 g/ha", "result": 1},
      {"measurement": "Plant response rating, Morningglory", "setting": "morningglory; Rate 200 g/ha, POSTEMERGENCE", "result": 10},
      {"measurement": "Plant response rating, Morningglory", "setting": "morningglory; Rate 200 g/ha, PREEMERGENCE", "result": 3},
      {"measurement": "Plant response rating, Velvetleaf", "setting": "velvetleaf; POSTEMERGENCE, Rate 50 g/ha", "result": 9},
      {"measurement": "Plant response rating, Velvetleaf", "setting": "velvetleaf; PREEMERGENCE, Rate 50 g/ha", "result": 0},
      {"measurement": "Plant response rating, Velvetleaf", "setting": "velvetleaf; Rate 200 g/ha, POSTEMERGENCE", "result": 10},
      {"measurement": "Plant response rating, Velvetleaf", "setting": "velvetleaf; Rate 200 g/ha, PREEMERGENCE", "result": 4},
      {"measurement": "Plant response rating, Wheat", "setting": "wheat [1]; POSTEMERGENCE, Rate 50 g/ha", "result": 5},
      {"measurement": "Plant response rating, Wheat", "setting": "wheat [1]; PREEMERGENCE, Rate 50 g/ha", "result": 0},
      {"measurement": "Plant response rating, Wheat", "setting": "wheat [1]; Rate 200 g/ha, POSTEMERGENCE", "result": 6},
      {"measurement": "Plant response rating, Wheat", "setting": "wheat [1]; Rate 200 g/ha, PREEMERGENCE", "result": 2},
      {"measurement": "Plant response rating, Bedstraw", "setting": "bedstraw; 62 g/ha", "result": 100},
      {"measurement": "Plant response rating, Bedstraw", "setting": "bedstraw; 250 g/ha", "result": 100},
      {"measurement": "Plant response rating (0 to 100), Bedstraw", "setting": "bedstraw; Rate 4 g/ha", "result": 20},
      {"measurement": "Plant response rating (0 to 100), Bedstraw", "setting": "bedstraw; Rate 16 g/ha", "result": 40},
      {"measurement": "Plant response rating, Blackgrass", "setting": "blackgrass; 62 g/ha", "result": 50},
      {"measurement": "Plant response rating, Blackgrass", "setting": "blackgrass; 250 g/ha", "result": 60},
      {"measurement": "Plant response rating (0 to 100), Blackgrass", "setting": "blackgrass; Rate 4 g/ha", "result": 20},
      {"measurement": "Plant response rating (0 to 100), Blackgrass", "setting": "blackgrass; Rate 16 g/ha", "result": 30},
      {"measurement": "Plant response rating, Crabgrass", "setting": "crabgrass; 62 g/ha", "result": 30},
      {"measurement": "Plant response rating, Crabgrass", "setting": "crabgrass; 250 g/ha", "result": 40},
      {"measurement": "Plant response rating (0 to 100), Crabgrass", "setting": "crabgrass; Rate 4 g/ha", "result": 10},
      {"measurement": "Plant response rating (0 to 100), Crabgrass", "setting": "crabgrass; Rate 16 g/ha", "result": 20},
      {"measurement": "Plant response rating, Giant foxtail", "setting": "giant foxtail; 62 g/ha", "result": 40},
      {"measurement": "Plant response rating, Giant foxtail", "setting": "giant foxtail; 250 g/ha", "result": 90},
      {"measurement": "Plant response rating (0 to 100), Giant foxtail", "setting": "giant foxtail; Rate 4 g/ha", "result": 20},
      {"measurement": "Plant response rating (0 to 100), Giant foxtail", "setting": "giant foxtail; Rate 16 g/ha", "result": 30},
      {"measurement": "Plant response rating, Rape", "setting": "rape; 62 g/ha", "result": 50},
      {"measurement": "Plant response rating, Rape", "setting": "rape; 250 g/ha", "result": 90},
      {"measurement": "Plant response rating (0 to 100), Rape", "setting": "rape; Rate 4 g/ha", "result": 30},
      {"measurement": "Plant response rating (0 to 100), Rape", "setting": "rape; Rate 16 g/ha", "result": 30},
      {"measurement": "Plant response rating, Wheat", "setting": "wheat [2]; 62 g/ha", "result": 30},
      {"measurement": "Plant response rating, Wheat", "setting": "wheat [2]; 250 g/ha", "result": 50},
      {"measurement": "Plant response rating (0 to 100), Wheat", "setting": "wheat [2]; Rate 4 g/ha", "result": 10},
      {"measurement": "Plant response rating (0 to 100), Wheat", "setting": "wheat [2]; Rate 16 g/ha", "result": 20},
      {"measurement": "Plant response rating, Wild oat", "setting": "wild oat; 62 g/ha", "result": 40},
      {"measurement": "Plant response rating, Wild oat", "setting": "wild oat; 250 g/ha", "result": 60},
      {"measurement": "Plant response rating (0 to 100), Wild oat", "setting": "wild oat; Rate 4 g/ha", "result": 20},
      {"measurement": "Plant response rating (0 to 100), Wild oat", "setting": "wild oat; Rate 16 g/ha", "result": 30}
    ]}
  ]
}
